Experimental data taken from patent publication US20100227401A1, “MEDIA AND PROCESSES FOR THE EX VIVO PRODUCTION OF MEGAKARYOCYTES FROM HUMAN CD34+ CELLS” (FOOD INDUSTRY RESEARCH AND DEVELOPMENT INSTITUTE, priority 2003, published 2010).

What was measured:
[1] = test system: serum-free expanded CD34^+ cells; assay: Ex vivo Mk induction from serum-free expanded CD34+ cells, 1-week induction, TNC count and Mk count (CD41a+CD61+); assay type: cell-based, human; conditions: preliminary screening of serum substitutes (data not shown)
Experimental: Each experiment was repeated at least four times. […] (1978), Statistics for Experimenters: An Introduction to Design, Data Analysis, and Model Building, Wiley, New York). In addition, the statistical significance was determined by an F-test, and the significance of the regression coefficient was analyzed by a t-test. […] After cultivation for 1 week, the cells were collected and subjected to the TNC count as described above and a megakaryocyte count (Mk count) so as to evaluate the ex vivo megakaryocytopoietic effects of the tested serum substitutes and cytokines. The Mk count was conducted by labeling the collected cells with CD41a-FITC and CD61-PE and analyzed according to the operating procedure described in the following section, entitled “4. […] The incubation was terminated by washing three times with 1 mL FACS buffer. Optionally, the first antibody-labeled cells were further incubated with a second antibody conjugated with PE or FITC in the same manner. After washing with FACS buffer, the labeled cells were resuspended in 1 mL FACS buffer and analyzed on a FACSCalibur analyzer (Becton-Dickinson, NJ, USA). The data were analyzed by CellQuest software. A replicate sample incubated with FITC- or PE-conjugated mouse IgG1 was used as an isotype control for specificity. […] SF-Mk as established in Example 1, IMDM+10% FBS, IMDM+2% FBS, […]-VIVO 10, X-VIVO 15, X-VIVO 20,[…], DMEM, RPMI 1640, α-MEM, BME medium, […] medium, and Medium 199, respectively. IMDM+10% FBS, IMDM+2% FBS, […]-VIVO 10, X-VIVO 15, X-VIVO 20,[…], DMEM, RPMI 1640, α-MEM, BME medium, […] medium and Medium 199 were respectively supplemented with the cytokine cocktail (CC) as screened in Example 1. […] After 1-week induction, the Mk number of each group was calculated. […] IMDM supplemented with a serum substitute consisting of 4.9 g/L BSA, 2.72 μg/mL insulin, and 80 μg/mL transferrin (based on the applicants' previous study, unpublished data) and the reference cytokine cocktail as previously reported in Te-Wei Chen et al. (2009), supra; and • (3) FBS group: IMDM supplemented with 10% FBS and the reference cytokine cocktail.

CD34^+-selected cells = conditions: PMP 200 ng/mL; TPO 10 ng/mL, IL-3 10 ng/mL; cited from earlier work
[2] = test system: hematopoietic progenitor cells (HPCs); conditions: cited from earlier work
[3] = mpIL added to growth factor cocktail

Row | Molecule | effect on ex vivo megakaryocytopoiesis [1] | other results
1 | insulin | significantly positive effects | 
2 | NC(=O)CC[C@H](N)C(=O)O [L-glutamine] | no effect | 
3 | promegapoietin [PMP] |  | megakaryocytopoietic activity (CD34^+-selected cells): comparable to that achieved with TPO plus IL-3
4 | mpIL: recombinant mpl ligand |  | Mk purity level [2, 3]: 80%; final yield of Mks [2, 3]: 4×10^5; cell number ([2]; mpIL alone): 1.5×10^5 cells
5 | transferrin | significantly positive effects | 
6 | OCCS [Step 2-ME, 2-mercaptoethanol] | no effect | 
7 | CC(=O)C(=O)[O-].[Na+] [sodium pyruvate] | no effect | 
